Data published in US20040127571A1 (UNIVERSITY OF SOUTH FLORIDA, priority 2002, published 2004).

Key:
p27 (gene) = conditions: previously shown; cited from earlier work
p27 in K562 cells = assay: p27 expression in K562 cells after SAHA (FIG. 2B); type: cell-based
Description: (§1) Moreover, exposure to SAHA increases the acetylation of histones (H3) and the expression of p21 (FIG. 2B). […] SAHA downregulates the levels and auto-phosphorylation, the addition of a phosphate group, of Bcr-Abl (FIG. 2C).

Bcr-Abl = Bcr-Abl levels and auto-phosphorylation after SAHA (FIG. 2C); type: cell-based
Description: as §1

[1] = tested on: imatinib refractory (resistant) cells; assay: Apoptosis of imatinib refractory cells after SAHA; type: cell-based
K562 cells = assay: Apoptosis of K562 cells after SAHA exposure; type: cell-based; conditions: 1.0 to 10.0 uM SAHA for 48 hours; FIG. 2A
K562 = assay: Cell cycle distribution of K562 cells after SAHA; type: cell-based; conditions: 1.0 to 5.0 uM SAHA for 48 hours; dose-dependent
Procedure: Treatment with 1.0 to 5.0 uM SAHA for 48 hours increased the percentage of K562 in the G1 (the gap in the cell division cycle between mitosis and synthesis) phase of the cell cycle in a dose-dependent manner.

p27 in LAMA cells = assay: p27 expression in LAMA cells after SAHA (FIG. 2B); type: cell-based
Description: as §1

Lama-84 cells = assay: Apoptosis of Lama-84 cells after SAHA exposure; type: cell-based; conditions: 1.0 to 10.0 uM SAHA for 48 hours; FIG. 2A
histones (H3), p21 = assay: Histone acetylation and p21 expression after SAHA (FIG. 2B); type: cell-based
Description: as §1

In the case of `O=C(CCCCCCC(=O)Nc1ccccc1)NO` [SAHA, Suberoylanilide Hydromaxic Acid], the “acetylation of histones of the chromatin associated with p27 (gene) / its transcription” value (p27 (gene)) is listed as “not to induce acetylation”, the p27 expression (p27 in K562 cells) is listed as “induced p27 expression” and the “auto-phosphorylation of Bcr-Abl” value (Bcr-Abl) is listed as “downregulates”. For the same compound, the “levels of Bcr-Abl” value (Bcr-Abl) was “downregulates”, the “apoptosis in imatinib refractory (resistant) cells” value [1] was “induces apoptosis” and the “apoptosis of K562 cells” value (K562 cells) was “dose-dependent increase”. For the same compound, the “percentage of K562 in the G1 phase of the cell cycle” value (K562) was “increased”, the p27 expression (p27 in LAMA cells) was “induced p27 expression” and the “apoptosis of Lama-84 cells” value (Lama-84 cells) was “dose-dependent increase”. For the same compound, the “acetylation of histones (H3)” value (histones (H3), p21) was “increases” and the “expression of p21” value (histones (H3), p21) was “increases”.
